In paper PMC6421522, “Designing Dual Inhibitors of Anaplastic Lymphoma Kinase (ALK) and Bromodomain-4 (BRD4) by Tuning Kinase Selectivity” (Journal of Medicinal Chemistry, 2019):

Key:
Experiment in all cases: KINOMEscan scanEDGE
Format in all cases: binding
Details in all cases: read-out: % Control (1µM)
PDGFRB = molecular target: T1, PDGFRB (Homo sapiens, UniProt P09619)
T1 construct: purchased DiscoveRx KINOMEscan (scanEDGE); Thermo Fisher SelectScreen (Z'-LYTE) for PLK-1
Experimental: (§1) Compound X was assayed at 1 μM in the DiscoveRx KINOMEscan (scanEDGE) assay platform. The results for single-concentration binding interactions are reported as “%Ctrl” (DMSO = 100%Ctrl), where lower numbers indicate stronger hits.

CSNK1G2 = molecular target: T2, CSNK1G2 (Homo sapiens, UniProt P78368)
T2 construct: purchased DiscoveRx KINOMEscan (scanEDGE); Thermo Fisher SelectScreen (Z'-LYTE) for PLK-1
Experimental: as §1

PIM3 = molecular target: T3, PIM3 (Homo sapiens, UniProt Q86V86)
T3 construct: purchased DiscoveRx KINOMEscan (scanEDGE); Thermo Fisher SelectScreen (Z'-LYTE) for PLK-1
Experimental: as §1

MAP3K4 = molecular target: T4, MAP3K4 (Homo sapiens, UniProt Q9Y6R4)
T4 construct: purchased DiscoveRx KINOMEscan (scanEDGE); Thermo Fisher SelectScreen (Z'-LYTE) for PLK-1
Experimental: as §1

RIOK2 = molecular target: T5, RIOK2 (Homo sapiens, UniProt Q9BVS4)
T5 construct: purchased DiscoveRx KINOMEscan (scanEDGE); Thermo Fisher SelectScreen (Z'-LYTE) for PLK-1
Experimental: as §1

BTK = molecular target: T6, BTK (Homo sapiens, UniProt Q06187)
T6 construct: purchased DiscoveRx KINOMEscan (scanEDGE); Thermo Fisher SelectScreen (Z'-LYTE) for PLK-1
Experimental: as §1

CDK2 = molecular target: T7, CDK2 (Homo sapiens, UniProt P24941)
T7 construct: purchased DiscoveRx KINOMEscan (scanEDGE); Thermo Fisher SelectScreen (Z'-LYTE) for PLK-1
Experimental: as §1

BRAF = molecular target: T8, BRAF (Homo sapiens, UniProt P15056)
T8 construct: purchased DiscoveRx KINOMEscan (scanEDGE); Thermo Fisher SelectScreen (Z'-LYTE) for PLK-1
Experimental: as §1

GSK3B = molecular target: T9, GSK3B (Homo sapiens, UniProt P49841)
T9 construct: purchased DiscoveRx KINOMEscan (scanEDGE); Thermo Fisher SelectScreen (Z'-LYTE) for PLK-1
Experimental: as §1

IGF1R = molecular target: T10, IGF1R (Homo sapiens, UniProt P08069)
T10 construct: purchased DiscoveRx KINOMEscan (scanEDGE); Thermo Fisher SelectScreen (Z'-LYTE) for PLK-1
Experimental: as §1

PAK4 = molecular target: T11, PAK4 (Homo sapiens, UniProt O96013)
T11 construct: purchased DiscoveRx KINOMEscan (scanEDGE); Thermo Fisher SelectScreen (Z'-LYTE) for PLK-1
Experimental: as §1

[1] = molecular target: T12, ABL1(T315I)-phosphorylated (Homo sapiens, UniProt P00519, T315I)
T12 construct: purchased DiscoveRx KINOMEscan (scanEDGE); Thermo Fisher SelectScreen (Z'-LYTE) for PLK-1
Experimental: as §1

[2] = molecular target: T13, RSK2(Kin.Dom.1-N-terminal) (Homo sapiens, UniProt P51812)
T13 construct: RSK2(Kin.Dom.1-N-terminal); purchased DiscoveRx KINOMEscan (scanEDGE); Thermo Fisher SelectScreen (Z'-LYTE) for PLK-1
Experimental: as §1

PDPK1 = molecular target: T14, PDPK1 (Homo sapiens, UniProt O15530)
T14 construct: purchased DiscoveRx KINOMEscan (scanEDGE); Thermo Fisher SelectScreen (Z'-LYTE) for PLK-1
Experimental: as §1

SRC = molecular target: T15, SRC (Homo sapiens, UniProt P12931)
T15 construct: purchased DiscoveRx KINOMEscan (scanEDGE); Thermo Fisher SelectScreen (Z'-LYTE) for PLK-1
Experimental: as §1

PDGFRA = molecular target: T16, PDGFRA (Homo sapiens, UniProt P16234)
T16 construct: purchased DiscoveRx KINOMEscan (scanEDGE); Thermo Fisher SelectScreen (Z'-LYTE) for PLK-1
Experimental: as §1

p38-alpha = molecular target: T17, p38-alpha (Homo sapiens, UniProt Q16539)
T17 construct: purchased DiscoveRx KINOMEscan (scanEDGE); Thermo Fisher SelectScreen (Z'-LYTE) for PLK-1
Experimental: as §1

ERK1 = molecular target: T18, ERK1 (Homo sapiens, UniProt P27361)
T18 construct: purchased DiscoveRx KINOMEscan (scanEDGE); Thermo Fisher SelectScreen (Z'-LYTE) for PLK-1
Experimental: as §1

FGFR3 = molecular target: T19, FGFR3 (Homo sapiens, UniProt P22607)
T19 construct: purchased DiscoveRx KINOMEscan (scanEDGE); Thermo Fisher SelectScreen (Z'-LYTE) for PLK-1
Experimental: as §1

YANK3 = molecular target: T20, YANK3 (Homo sapiens, UniProt Q86UX6)
T20 construct: purchased DiscoveRx (DiscoverX)
Experimental: as §1

PRKCE = molecular target: T21, PRKCE (Homo sapiens, UniProt Q02156)
T21 construct: purchased DiscoveRx KINOMEscan (scanEDGE); Thermo Fisher SelectScreen (Z'-LYTE) for PLK-1
Experimental: as §1

MLK1 = molecular target: T22, MLK1 (Homo sapiens, UniProt P80192)
T22 construct: purchased DiscoveRx KINOMEscan (scanEDGE); Thermo Fisher SelectScreen (Z'-LYTE) for PLK-1
Experimental: as §1

ADCK3 = molecular target: T23, ADCK3 (Homo sapiens, UniProt Q8NI60)
T23 construct: purchased DiscoveRx KINOMEscan (scanEDGE); Thermo Fisher SelectScreen (Z'-LYTE) for PLK-1
Experimental: as §1

JNK2 = molecular target: T24, JNK2 (Homo sapiens, UniProt P45984)
T24 construct: purchased DiscoveRx (DiscoverX)
Experimental: as §1

EPHA2 = molecular target: T25, EPHA2 (Homo sapiens, UniProt P29317)
T25 construct: purchased DiscoveRx KINOMEscan (scanEDGE); Thermo Fisher SelectScreen (Z'-LYTE) for PLK-1
Experimental: as §1

MAPKAPK2 = molecular target: T26, MAPKAPK2 (Homo sapiens, UniProt P49137)
T26 construct: purchased DiscoveRx KINOMEscan (scanEDGE); Thermo Fisher SelectScreen (Z'-LYTE) for PLK-1
Experimental: as §1

PCTK1 = molecular target: T27, PCTK1 (Homo sapiens, UniProt Q00536)
T27 construct: purchased DiscoveRx KINOMEscan (scanEDGE); Thermo Fisher SelectScreen (Z'-LYTE) for PLK-1
Experimental: as §1

EGFR(L858R) = molecular target: T28, EGFR(L858R) (Homo sapiens, UniProt P00533, L858R)
T28 construct: purchased DiscoveRx KINOMEscan (scanEDGE); Thermo Fisher SelectScreen (Z'-LYTE) for PLK-1
Experimental: as §1

CHEK1 = molecular target: T29, CHEK1 (Homo sapiens, UniProt O14757)
T29 construct: purchased DiscoveRx KINOMEscan (scanEDGE); Thermo Fisher SelectScreen (Z'-LYTE) for PLK-1
Experimental: as §1

TGFBR1 = molecular target: T30, TGFBR1 (Homo sapiens, UniProt P36897)
T30 construct: purchased DiscoveRx KINOMEscan (scanEDGE); Thermo Fisher SelectScreen (Z'-LYTE) for PLK-1
Experimental: as §1

CDK7 = molecular target: T31, CDK7 (Homo sapiens, UniProt P50613)
T31 construct: purchased DiscoveRx KINOMEscan (scanEDGE); Thermo Fisher SelectScreen (Z'-LYTE) for PLK-1
Experimental: as §1

BMPR2 = molecular target: T32, BMPR2 (Homo sapiens, UniProt Q13873)
T32 construct: purchased DiscoveRx KINOMEscan (scanEDGE); Thermo Fisher SelectScreen (Z'-LYTE) for PLK-1
Experimental: as §1

MKNK1 = molecular target: T33, MKNK1 (Homo sapiens, UniProt Q9BUB5)
T33 construct: purchased DiscoveRx KINOMEscan (scanEDGE); Thermo Fisher SelectScreen (Z'-LYTE) for PLK-1
Experimental: as §1

PIM1 = molecular target: T34, PIM1 (Homo sapiens, UniProt P11309)
T34 construct: purchased DiscoveRx KINOMEscan (scanEDGE); Thermo Fisher SelectScreen (Z'-LYTE) for PLK-1
Experimental: as §1

ABL1-phosphorylated = molecular target: T35, ABL1-phosphorylated (Homo sapiens, UniProt P00519)
T35 construct: purchased DiscoveRx KINOMEscan (scanEDGE); Thermo Fisher SelectScreen (Z'-LYTE) for PLK-1
Experimental: as §1

KIT = molecular target: T36, KIT (Homo sapiens, UniProt P10721)
T36 construct: purchased DiscoveRx (DiscoverX)
Experimental: as §1

MARK3 = molecular target: T37, MARK3 (Homo sapiens, UniProt P27448)
T37 construct: purchased DiscoveRx KINOMEscan (scanEDGE); Thermo Fisher SelectScreen (Z'-LYTE) for PLK-1
Experimental: as §1

VEGFR2 = molecular target: T38, VEGFR2 (Homo sapiens, UniProt P35968)
T38 construct: purchased DiscoveRx (DiscoverX)
Experimental: as §1

CDK11 = molecular target: T39, CDK11 (Homo sapiens, UniProt Q9BWU1)
T39 construct: purchased DiscoveRx KINOMEscan (scanEDGE); Thermo Fisher SelectScreen (Z'-LYTE) for PLK-1
Experimental: as §1

[3] = molecular target: T40, ABL1(E255K)-phosphorylated (Homo sapiens, UniProt P00519, E255K)
T40 construct: purchased DiscoveRx KINOMEscan (scanEDGE); Thermo Fisher SelectScreen (Z'-LYTE) for PLK-1
Experimental: as §1

AKT2 = molecular target: T41, AKT2 (Homo sapiens, UniProt P31751)
T41 construct: purchased DiscoveRx KINOMEscan (scanEDGE); Thermo Fisher SelectScreen (Z'-LYTE) for PLK-1
Experimental: as §1

ABL1-nonphosphorylated = molecular target: T42, ABL1-nonphosphorylated (Homo sapiens, UniProt P00519)
T42 construct: purchased DiscoveRx KINOMEscan (scanEDGE); Thermo Fisher SelectScreen (Z'-LYTE) for PLK-1
Experimental: as §1

T20 sequence (Q86UX6 whole entry): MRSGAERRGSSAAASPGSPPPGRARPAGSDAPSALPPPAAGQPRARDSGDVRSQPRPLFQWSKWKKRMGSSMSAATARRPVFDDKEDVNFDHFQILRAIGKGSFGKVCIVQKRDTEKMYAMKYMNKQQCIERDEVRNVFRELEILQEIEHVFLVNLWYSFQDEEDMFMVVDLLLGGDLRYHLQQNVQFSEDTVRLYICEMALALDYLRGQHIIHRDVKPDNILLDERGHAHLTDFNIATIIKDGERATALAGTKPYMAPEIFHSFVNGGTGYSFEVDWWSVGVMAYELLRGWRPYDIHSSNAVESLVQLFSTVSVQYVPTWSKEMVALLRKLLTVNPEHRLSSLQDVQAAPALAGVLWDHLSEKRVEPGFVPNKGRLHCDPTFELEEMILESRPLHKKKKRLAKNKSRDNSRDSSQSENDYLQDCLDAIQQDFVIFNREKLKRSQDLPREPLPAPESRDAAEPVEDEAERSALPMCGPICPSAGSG
T8 sequence (P15056 whole entry): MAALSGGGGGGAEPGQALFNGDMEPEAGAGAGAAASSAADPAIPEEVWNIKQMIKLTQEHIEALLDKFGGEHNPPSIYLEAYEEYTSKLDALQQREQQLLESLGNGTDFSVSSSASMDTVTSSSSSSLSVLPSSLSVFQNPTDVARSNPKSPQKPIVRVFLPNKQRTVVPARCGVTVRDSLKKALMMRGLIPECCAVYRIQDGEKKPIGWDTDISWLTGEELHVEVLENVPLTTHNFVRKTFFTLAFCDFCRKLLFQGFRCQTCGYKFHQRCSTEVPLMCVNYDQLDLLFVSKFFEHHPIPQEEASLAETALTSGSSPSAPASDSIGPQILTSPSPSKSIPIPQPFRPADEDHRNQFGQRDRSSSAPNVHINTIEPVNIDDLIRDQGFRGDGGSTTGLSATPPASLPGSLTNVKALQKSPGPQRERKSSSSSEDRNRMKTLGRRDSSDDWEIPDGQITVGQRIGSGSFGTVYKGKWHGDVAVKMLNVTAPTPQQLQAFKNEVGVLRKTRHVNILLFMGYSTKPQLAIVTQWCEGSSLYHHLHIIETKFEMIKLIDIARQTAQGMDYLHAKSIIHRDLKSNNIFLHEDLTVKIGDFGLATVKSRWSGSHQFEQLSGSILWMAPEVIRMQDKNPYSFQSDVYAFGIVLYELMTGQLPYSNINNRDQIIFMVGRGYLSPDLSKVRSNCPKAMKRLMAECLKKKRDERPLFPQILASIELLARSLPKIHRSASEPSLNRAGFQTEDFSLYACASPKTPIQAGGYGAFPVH
T31 sequence (P50613 whole entry): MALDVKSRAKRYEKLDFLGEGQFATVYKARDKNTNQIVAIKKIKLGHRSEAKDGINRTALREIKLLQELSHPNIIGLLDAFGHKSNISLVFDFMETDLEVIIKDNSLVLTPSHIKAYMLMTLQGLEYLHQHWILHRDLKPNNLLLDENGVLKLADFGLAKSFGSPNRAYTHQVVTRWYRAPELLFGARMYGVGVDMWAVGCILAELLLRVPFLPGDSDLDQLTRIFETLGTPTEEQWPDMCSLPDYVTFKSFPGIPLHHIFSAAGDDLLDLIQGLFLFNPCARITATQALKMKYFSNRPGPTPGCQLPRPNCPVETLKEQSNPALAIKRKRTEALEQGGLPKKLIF
T18 sequence (P27361 whole entry): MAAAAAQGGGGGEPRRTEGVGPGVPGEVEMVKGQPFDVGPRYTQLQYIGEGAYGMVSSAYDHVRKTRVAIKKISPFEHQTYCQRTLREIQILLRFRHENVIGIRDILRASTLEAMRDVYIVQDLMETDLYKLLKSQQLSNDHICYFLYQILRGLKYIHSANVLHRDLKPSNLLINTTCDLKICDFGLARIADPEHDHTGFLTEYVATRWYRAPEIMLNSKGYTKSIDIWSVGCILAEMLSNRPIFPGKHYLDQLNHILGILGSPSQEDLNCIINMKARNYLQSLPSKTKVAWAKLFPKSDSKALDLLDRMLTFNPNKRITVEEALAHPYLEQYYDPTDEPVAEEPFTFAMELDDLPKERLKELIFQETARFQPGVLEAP
T26 sequence (P49137 whole entry): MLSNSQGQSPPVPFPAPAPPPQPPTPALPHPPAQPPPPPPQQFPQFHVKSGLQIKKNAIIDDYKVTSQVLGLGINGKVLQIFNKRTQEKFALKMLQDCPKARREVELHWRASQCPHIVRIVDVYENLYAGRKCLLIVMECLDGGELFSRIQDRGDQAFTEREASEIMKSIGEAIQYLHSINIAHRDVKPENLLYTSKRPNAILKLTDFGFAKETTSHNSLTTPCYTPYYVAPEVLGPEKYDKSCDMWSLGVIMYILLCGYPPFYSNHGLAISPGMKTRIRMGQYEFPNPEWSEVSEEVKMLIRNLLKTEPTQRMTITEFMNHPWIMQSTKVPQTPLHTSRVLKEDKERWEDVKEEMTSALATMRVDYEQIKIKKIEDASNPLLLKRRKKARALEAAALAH
T1 sequence (P09619 33-1106): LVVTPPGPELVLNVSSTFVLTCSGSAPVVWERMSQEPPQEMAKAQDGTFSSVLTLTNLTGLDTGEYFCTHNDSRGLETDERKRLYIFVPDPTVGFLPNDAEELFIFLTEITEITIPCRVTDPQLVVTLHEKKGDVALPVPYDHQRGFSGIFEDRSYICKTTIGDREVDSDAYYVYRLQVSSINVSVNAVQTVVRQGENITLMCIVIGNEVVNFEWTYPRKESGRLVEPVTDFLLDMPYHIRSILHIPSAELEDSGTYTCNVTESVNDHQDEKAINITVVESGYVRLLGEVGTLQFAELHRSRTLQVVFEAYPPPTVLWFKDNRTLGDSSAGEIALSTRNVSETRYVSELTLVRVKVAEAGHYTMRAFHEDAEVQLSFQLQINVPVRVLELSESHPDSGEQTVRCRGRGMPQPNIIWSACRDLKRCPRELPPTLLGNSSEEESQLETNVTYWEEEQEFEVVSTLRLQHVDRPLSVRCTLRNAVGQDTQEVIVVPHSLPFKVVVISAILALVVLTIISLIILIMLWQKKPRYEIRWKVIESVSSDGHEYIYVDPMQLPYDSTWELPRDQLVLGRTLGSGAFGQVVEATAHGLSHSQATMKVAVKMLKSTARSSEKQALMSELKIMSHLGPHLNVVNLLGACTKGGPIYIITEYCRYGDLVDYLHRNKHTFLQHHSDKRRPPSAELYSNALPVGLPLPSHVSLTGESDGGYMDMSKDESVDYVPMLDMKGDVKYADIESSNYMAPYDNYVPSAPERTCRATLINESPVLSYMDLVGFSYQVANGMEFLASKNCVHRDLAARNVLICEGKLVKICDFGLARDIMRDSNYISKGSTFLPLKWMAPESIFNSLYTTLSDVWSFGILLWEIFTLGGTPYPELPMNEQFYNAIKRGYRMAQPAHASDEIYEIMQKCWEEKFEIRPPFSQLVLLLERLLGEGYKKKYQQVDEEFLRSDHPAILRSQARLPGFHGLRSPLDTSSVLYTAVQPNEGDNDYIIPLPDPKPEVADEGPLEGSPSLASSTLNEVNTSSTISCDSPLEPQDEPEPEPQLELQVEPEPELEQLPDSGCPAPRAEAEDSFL
T14 sequence (O15530 whole entry): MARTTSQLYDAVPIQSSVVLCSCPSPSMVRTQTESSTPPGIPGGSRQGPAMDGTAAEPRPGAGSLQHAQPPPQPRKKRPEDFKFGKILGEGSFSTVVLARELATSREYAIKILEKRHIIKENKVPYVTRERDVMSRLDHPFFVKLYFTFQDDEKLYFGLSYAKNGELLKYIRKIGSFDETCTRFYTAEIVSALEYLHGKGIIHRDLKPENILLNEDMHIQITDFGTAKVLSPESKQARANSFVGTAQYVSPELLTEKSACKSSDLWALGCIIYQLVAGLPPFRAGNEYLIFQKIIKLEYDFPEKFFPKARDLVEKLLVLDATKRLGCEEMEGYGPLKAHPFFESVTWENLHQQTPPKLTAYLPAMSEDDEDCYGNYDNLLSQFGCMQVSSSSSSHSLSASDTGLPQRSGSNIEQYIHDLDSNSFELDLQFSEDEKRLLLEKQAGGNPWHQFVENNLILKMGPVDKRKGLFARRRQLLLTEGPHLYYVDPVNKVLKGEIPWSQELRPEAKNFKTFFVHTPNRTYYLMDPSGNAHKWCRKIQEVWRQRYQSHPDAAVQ
T27 sequence (Q00536 whole entry): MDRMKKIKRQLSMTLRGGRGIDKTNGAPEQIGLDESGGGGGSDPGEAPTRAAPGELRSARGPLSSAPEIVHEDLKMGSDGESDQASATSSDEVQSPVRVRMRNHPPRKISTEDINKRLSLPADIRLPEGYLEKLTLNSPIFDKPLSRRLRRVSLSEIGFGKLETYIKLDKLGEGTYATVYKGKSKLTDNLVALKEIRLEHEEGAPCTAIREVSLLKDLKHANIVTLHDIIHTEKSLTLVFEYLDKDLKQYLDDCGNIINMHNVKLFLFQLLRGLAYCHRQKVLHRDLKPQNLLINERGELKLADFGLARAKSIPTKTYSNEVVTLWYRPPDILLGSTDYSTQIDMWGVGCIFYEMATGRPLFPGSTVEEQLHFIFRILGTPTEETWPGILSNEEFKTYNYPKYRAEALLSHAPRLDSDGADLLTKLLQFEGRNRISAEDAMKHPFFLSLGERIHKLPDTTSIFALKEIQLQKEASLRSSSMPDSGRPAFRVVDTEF
T41 sequence (P31751 whole entry): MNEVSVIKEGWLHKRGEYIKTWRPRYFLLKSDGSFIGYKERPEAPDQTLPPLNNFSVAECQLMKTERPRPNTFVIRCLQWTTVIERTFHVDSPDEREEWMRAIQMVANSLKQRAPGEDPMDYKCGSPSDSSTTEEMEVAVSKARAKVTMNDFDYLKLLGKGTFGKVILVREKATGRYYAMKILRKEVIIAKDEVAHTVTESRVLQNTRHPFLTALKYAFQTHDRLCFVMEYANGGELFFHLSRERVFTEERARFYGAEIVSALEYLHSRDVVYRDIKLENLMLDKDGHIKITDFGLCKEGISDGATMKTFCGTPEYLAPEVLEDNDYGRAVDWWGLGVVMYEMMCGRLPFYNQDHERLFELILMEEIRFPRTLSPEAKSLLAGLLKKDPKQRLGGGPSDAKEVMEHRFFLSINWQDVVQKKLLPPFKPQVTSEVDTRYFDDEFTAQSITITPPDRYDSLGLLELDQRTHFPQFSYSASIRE

remaining binding at 1 µM (PDGFRB): 100%
remaining binding at 1 µM (CSNK1G2): 100%
remaining binding at 1 µM (PIM3): 100%
remaining binding at 1 µM (MAP3K4): 92%
remaining binding at 1 µM (RIOK2): 74%
remaining binding at 1 µM (BTK): 100%
remaining binding at 1 µM (CDK2): 100%
remaining binding at 1 µM (BRAF): 100%
remaining binding at 1 µM (GSK3B): 82%
remaining binding at 1 µM (IGF1R): 77%
remaining binding at 1 µM (PAK4): 100%
remaining binding at 1 µM [1]: 71%
remaining binding at 1 µM [2]: 59%
remaining binding at 1 µM (PDPK1): 98%
remaining binding at 1 µM (SRC): 100%
remaining binding at 1 µM (PDGFRA): 96%
remaining binding at 1 µM (p38-alpha): 92%
remaining binding at 1 µM (ERK1): 100%
remaining binding at 1 µM (FGFR3): 98%
remaining binding at 1 µM (YANK3): 100%
remaining binding at 1 µM (PRKCE): 100%
remaining binding at 1 µM (MLK1): 100%
remaining binding at 1 µM (ADCK3): 100%
remaining binding at 1 µM (JNK2): 44%
remaining binding at 1 µM (EPHA2): 100%
remaining binding at 1 µM (MAPKAPK2): 100%
remaining binding at 1 µM (PCTK1): 95%
remaining binding at 1 µM (EGFR(L858R)): 69%
remaining binding at 1 µM (CHEK1): 100%
remaining binding at 1 µM (TGFBR1): 94%
remaining binding at 1 µM (CDK7): 88%
remaining binding at 1 µM (BMPR2): 100%
remaining binding at 1 µM (MKNK1): 100%
remaining binding at 1 µM (PIM1): 97%
remaining binding at 1 µM (ABL1-phosphorylated): 100%
remaining binding at 1 µM (KIT): 100%
remaining binding at 1 µM (MARK3): 100%
remaining binding at 1 µM (VEGFR2): 87%
remaining binding at 1 µM (CDK11): 93%
remaining binding at 1 µM [3]: 100%
remaining binding at 1 µM (AKT2): 100%
remaining binding at 1 µM (ABL1-nonphosphorylated): 84%
SMILES: CCOc1cc(C2CCN(C)CC2)ccc1Nc1ncc2c(n1)N(Cc1cc(C)cs1)[C@H](CC)C(=O)N2C [16k, (R)-2-((2-Ethoxy-4-(1-methylpiperidin-4-yl)phenyl)amino)-7-ethyl-5-methyl-8-((4-methylthiophen-2-yl)methyl)-7,8-dihydropteridin-6(5H)-one]
